{
  "source": "patent EP1042468B1",
  "key": {"[1]": {"target": "T1, human α1H containing calcium channels expressed in HEK293 cells (Homo sapiens, UniProt O95180)", "T1 construct": "expressed in transfected cells; host or cells: HEK293 (transient, calcium phosphate; pCMVCD4 co-transfected as marker)", "T1 sequence (O95180 whole entry)": "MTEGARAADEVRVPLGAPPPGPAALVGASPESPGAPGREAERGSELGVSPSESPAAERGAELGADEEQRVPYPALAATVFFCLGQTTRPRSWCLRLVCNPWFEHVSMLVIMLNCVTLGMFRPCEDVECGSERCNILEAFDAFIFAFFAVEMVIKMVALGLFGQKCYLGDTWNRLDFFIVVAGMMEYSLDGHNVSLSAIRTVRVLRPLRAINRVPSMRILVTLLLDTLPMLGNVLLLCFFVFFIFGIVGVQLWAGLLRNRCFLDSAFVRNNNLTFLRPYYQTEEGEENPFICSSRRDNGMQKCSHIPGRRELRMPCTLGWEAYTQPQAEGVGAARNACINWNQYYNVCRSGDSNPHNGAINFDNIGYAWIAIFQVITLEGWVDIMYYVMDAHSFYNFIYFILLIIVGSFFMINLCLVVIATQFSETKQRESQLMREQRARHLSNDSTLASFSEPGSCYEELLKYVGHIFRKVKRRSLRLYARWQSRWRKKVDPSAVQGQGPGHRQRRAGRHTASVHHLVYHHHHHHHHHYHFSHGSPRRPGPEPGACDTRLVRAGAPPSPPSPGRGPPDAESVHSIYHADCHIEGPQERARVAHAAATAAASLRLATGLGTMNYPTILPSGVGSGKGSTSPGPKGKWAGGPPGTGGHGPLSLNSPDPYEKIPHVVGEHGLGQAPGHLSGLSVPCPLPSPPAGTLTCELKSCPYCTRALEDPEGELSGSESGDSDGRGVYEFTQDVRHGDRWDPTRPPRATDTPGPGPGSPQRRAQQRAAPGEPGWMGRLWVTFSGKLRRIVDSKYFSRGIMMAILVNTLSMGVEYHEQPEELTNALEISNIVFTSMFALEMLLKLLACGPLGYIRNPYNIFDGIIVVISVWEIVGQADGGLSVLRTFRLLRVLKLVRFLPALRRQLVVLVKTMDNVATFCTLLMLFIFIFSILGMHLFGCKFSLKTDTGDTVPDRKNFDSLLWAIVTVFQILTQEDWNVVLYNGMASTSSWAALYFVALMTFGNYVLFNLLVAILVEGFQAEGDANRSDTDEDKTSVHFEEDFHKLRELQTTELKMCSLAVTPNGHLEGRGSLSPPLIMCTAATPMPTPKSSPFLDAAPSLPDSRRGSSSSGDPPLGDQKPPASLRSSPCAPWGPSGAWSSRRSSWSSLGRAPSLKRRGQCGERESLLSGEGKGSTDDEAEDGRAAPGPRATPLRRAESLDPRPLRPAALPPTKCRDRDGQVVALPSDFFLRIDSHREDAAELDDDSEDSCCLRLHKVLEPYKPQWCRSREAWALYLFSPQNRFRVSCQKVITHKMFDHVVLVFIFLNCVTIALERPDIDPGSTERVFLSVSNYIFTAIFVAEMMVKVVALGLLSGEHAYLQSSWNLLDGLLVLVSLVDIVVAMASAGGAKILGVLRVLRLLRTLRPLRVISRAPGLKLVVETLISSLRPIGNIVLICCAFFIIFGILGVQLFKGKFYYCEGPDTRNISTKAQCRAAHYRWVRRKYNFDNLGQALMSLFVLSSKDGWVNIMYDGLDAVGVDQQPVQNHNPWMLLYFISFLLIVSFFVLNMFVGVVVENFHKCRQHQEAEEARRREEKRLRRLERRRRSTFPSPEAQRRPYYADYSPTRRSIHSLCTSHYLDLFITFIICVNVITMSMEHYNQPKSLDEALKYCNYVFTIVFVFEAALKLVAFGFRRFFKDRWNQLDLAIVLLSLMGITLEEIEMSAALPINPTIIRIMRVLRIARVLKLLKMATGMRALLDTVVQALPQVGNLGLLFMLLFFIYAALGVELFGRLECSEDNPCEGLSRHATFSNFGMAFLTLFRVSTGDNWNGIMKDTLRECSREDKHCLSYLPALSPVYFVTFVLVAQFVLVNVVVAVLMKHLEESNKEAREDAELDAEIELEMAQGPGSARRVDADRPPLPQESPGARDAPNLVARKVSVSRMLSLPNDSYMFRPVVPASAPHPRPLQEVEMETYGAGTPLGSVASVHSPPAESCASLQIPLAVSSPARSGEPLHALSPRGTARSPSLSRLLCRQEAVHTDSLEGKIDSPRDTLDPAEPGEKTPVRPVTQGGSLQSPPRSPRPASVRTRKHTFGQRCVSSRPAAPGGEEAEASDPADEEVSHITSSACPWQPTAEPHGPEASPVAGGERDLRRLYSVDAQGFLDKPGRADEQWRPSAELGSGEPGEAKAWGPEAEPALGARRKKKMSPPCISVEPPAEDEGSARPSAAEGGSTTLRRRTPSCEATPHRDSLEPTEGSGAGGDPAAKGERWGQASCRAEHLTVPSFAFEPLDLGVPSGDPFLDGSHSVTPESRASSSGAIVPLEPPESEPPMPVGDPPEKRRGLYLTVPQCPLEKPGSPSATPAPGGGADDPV", "assay": "Whole-cell patch clamp of HEK293 cells transiently expressing the α1H subunit", "format": "cell-based"}, "[2]": {"target": "T2, human α1H channels expressed in Xenopus oöcytes (Homo sapiens, UniProt O95180)", "T2 construct": "Construction of a full-length α1H-1-encoding DNA clone; expressed in transfected cells; host or cells: Xenopus laevis oöcytes injected with in vitro transcripts", "T2 sequence (O95180 whole entry)": "as above", "format": "cell-based", "settings": "for IC50: Ba^2+ currents (15 mM Ba^2+)"}, "[3]": {"test_system": "human neuronal calcium channel α2 and β1 subunits", "assay": "Two-electrode voltage clamp of oöcytes injected with α2 and β1 transcripts", "settings": "n = 11"}, "[4]": {"target": "human neuronal calcium channel α1D and α2 subunits (Homo sapiens, UniProt Q01668)", "sequence (Q01668 10-2161 limits assumed)": "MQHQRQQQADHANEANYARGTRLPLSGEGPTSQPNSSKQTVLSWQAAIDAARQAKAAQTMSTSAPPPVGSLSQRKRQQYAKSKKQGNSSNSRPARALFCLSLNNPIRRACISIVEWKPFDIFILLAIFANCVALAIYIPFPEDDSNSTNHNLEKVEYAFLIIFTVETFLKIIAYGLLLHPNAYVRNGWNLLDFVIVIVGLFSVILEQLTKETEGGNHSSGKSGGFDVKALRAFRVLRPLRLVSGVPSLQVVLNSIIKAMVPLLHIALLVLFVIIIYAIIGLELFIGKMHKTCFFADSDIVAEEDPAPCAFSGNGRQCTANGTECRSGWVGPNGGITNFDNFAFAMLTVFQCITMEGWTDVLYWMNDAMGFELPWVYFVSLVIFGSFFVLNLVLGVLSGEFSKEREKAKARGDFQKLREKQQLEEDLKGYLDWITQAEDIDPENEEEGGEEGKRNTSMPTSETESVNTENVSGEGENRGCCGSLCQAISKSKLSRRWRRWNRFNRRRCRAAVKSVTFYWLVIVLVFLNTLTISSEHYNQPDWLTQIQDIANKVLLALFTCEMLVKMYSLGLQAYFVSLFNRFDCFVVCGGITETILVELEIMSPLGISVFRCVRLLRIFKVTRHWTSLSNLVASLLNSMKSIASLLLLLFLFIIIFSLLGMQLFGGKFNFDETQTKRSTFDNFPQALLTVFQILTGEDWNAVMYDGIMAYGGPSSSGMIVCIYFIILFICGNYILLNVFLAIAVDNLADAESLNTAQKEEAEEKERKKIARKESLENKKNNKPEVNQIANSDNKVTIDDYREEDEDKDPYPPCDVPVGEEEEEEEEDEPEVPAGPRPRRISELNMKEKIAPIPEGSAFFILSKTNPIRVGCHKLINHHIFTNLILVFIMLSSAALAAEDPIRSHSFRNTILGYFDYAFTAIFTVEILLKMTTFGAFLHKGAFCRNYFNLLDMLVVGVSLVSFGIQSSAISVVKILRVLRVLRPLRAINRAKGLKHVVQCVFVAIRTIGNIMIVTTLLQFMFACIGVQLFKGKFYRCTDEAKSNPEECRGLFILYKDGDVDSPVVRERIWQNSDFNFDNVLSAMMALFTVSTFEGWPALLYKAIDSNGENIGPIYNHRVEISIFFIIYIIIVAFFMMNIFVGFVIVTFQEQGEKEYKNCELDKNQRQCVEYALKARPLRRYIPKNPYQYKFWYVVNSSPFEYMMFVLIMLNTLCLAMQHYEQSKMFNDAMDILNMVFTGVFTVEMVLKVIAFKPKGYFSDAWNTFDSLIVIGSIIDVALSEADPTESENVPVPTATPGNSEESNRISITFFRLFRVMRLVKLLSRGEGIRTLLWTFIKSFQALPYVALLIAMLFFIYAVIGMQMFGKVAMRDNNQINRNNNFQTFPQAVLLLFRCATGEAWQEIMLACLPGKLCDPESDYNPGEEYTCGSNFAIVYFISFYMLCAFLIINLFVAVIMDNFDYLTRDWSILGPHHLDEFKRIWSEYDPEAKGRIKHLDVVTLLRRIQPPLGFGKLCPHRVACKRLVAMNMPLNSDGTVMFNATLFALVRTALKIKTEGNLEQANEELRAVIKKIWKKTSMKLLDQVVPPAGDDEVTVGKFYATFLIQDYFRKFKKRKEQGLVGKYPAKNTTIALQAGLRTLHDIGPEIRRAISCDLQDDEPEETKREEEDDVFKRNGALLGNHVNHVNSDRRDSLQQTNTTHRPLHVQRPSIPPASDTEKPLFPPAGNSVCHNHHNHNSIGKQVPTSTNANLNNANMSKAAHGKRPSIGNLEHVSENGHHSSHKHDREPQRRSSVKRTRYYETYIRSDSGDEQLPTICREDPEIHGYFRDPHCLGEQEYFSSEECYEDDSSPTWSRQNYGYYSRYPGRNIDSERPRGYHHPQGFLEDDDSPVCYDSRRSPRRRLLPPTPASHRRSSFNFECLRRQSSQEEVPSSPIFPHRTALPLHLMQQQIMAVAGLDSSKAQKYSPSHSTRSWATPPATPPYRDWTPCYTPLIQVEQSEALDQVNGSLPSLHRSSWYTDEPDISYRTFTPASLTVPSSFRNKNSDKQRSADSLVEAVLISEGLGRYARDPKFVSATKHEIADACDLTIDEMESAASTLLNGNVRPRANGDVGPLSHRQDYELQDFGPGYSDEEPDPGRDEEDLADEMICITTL", "assay": "Two-electrode voltage clamp of oöcytes injected with α1D and α2 transcripts", "settings": "holding potential of -90 mV"}, "[5]": {"test_system": "T-type current in neuroblastoma cells", "settings": "cited from earlier work"}, "[6]": {"test_system": "T-type current in hippocampal neurons", "settings": "300 µM; cited from earlier work"}, "[7]": {"settings": "Xenopus oöcytes, concentration-inhibition curve of Ba^2+ currents"}},
  "note": "Several values for one entry are separate records, joined by “and”; a condition that tells them apart may be missing. Equal values may be shown once. Read-outs that look alike come from different tables or passages of the source.",
  "data": [
    {"molecule": "COC(=O)C1=C(C)NC(C)=C([N+](=O)[O-])[C@H]1c1ccccc1C(F)(F)F", "note": "[(-)BayK-8644]", "values": [
      {"measurement": "inhibition at 1 µM", "setting": "[1]; HEK293, read-out: % Inhibition of Control Response, 1 µM, HEK293 cells, 15 mM Ba^2+, mean ± SD(n)", "result": "0.4 ± 0.8", "unit": "%"},
      {"measurement": "effect on α1H channels (in words)", "setting": "[1]; concentration of 1 µM", "result": "little effect"},
      {"measurement": "effect on α1H-containing channels (in words)", "setting": "[1]; concentration of 10 µM", "result": "marked inhibition"}
    ]},
    {"molecule": "[Ni+2]", "note": "[Ni^2+]", "values": [
      {"measurement": "IC50", "setting": "[1]", "result": 6.6, "unit": "µM"},
      {"measurement": "effect on α1H-mediated currents (in words)", "setting": "[1]", "result": "inhibited"},
      {"measurement": "α1H-mediated currents more sensitive to Ni^2+ than to Cd^2+", "setting": "[1]", "result": 16, "unit": "fold"},
      {"measurement": "reversibility of antagonism", "setting": "[2]; Xenopus oöcytes", "result": "largely reversible"},
      {"measurement": "IC50", "setting": "[2]; Xenopus oöcytes", "result": 6.3, "unit": "µM"},
      {"measurement": "nH", "setting": "[2]; [7]", "result": 0.84}
    ]},
    {"molecule": "COCCOC(=O)C1=C(C)NC(C)=C(C(=O)OC(C)C)C1c1cccc([N+](=O)[O-])c1", "note": "(centres unmarked) [Nimodipine, nimodipine]", "values": [
      {"measurement": "inhibition at 10 µM", "setting": "[1]; HEK293, 10 µM, HEK293 cells, 15 mM Ba^2+, mean ± SD(n), read-out: % Inhibition of Control Response", "result": "43.7 ± 4.1", "unit": "%"}
    ]},
    {"molecule": "CCC1(C)CC(=O)NC1=O", "note": "(centres unmarked) [Ethosuximide, ethosuximide]", "values": [
      {"measurement": "inhibition at 300 µM", "setting": "[1]; HEK293, 300 µM, HEK293 cells, 15 mM Ba^2+, mean ± SD(n), read-out: % Inhibition of Control Response", "result": "7.2 ± 1.8", "unit": "%"},
      {"measurement": "effect on α1H-mediated currents (in words)", "setting": "[1]; no concentration stated", "result": "no effect"}
    ]},
    {"molecule": "COC(=O)C1=C(C)NC(C)=C([N+](=O)[O-])C1c1ccccc1C(F)(F)F", "note": "(centres unmarked) [Bay K 8644]", "values": [
      {"measurement": "sensitivity of inward barium currents (in words)", "setting": "[3]", "result": "insensitive"},
      {"measurement": "response of barium currents (in words)", "setting": "[4]", "result": "little or no response"}
    ]},
    {"molecule": "COCC(=O)O[C@]1(CCN(C)CCCc2nc3ccccc3[nH]2)CCc2cc(F)ccc2[C@@H]1C(C)C", "note": "[Mibefradil, (IS,2S)-2-[2-[[3-(1H-benzimidazol-2-yl)propyl]methyl-amino]ethyl]-6-fluoro-1-isopropyl-1,2,3,4-tetrahydronaphthalen-2-yl methoxyacetate]", "values": [
      {"measurement": "inhibition at 1 µM", "setting": "[1]; 1 µM, HEK293 cells, 15 mM Ba^2+, mean ± SD(n), read-out: % Inhibition of Control Response", "result": "51 ± 10", "unit": "%"},
      {"measurement": "effect on α1H-mediated currents (in words)", "setting": "[1]; no concentration stated", "result": "inhibited"},
      {"measurement": "nH", "setting": "[2]; [7]", "result": 0.71}
    ]},
    {"molecule": "N=C(N)NC(=O)c1nc(Cl)c(N)nc1N", "note": "[Amiloride, amiloride]", "values": [
      {"measurement": "effect on α1H-mediated currents (in words)", "setting": "[1]", "result": "inhibited"},
      {"measurement": "sensitivity of α1H-1-containing calcium channels lower when expressed in HEK293 cells than when expressed in Xenopus oöcytes", "setting": "[1]", "result": "about 10 fold"},
      {"measurement": "IC50", "setting": "[1]; HEK293 cells, charge carrier 15 mM Ba^2+, sigmoidal curve fitting", "result": 167, "unit": "µM"},
      {"measurement": "nH", "setting": "[2]", "result": 0.62},
      {"measurement": "IC50", "setting": "[5]", "result": "~50", "unit": "µM"},
      {"measurement": "reduction of the T-type current", "setting": "[6]", "result": 40, "unit": "%"}
    ]},
    {"molecule": "[Cd+2]", "note": "[Cd^2+]", "values": [
      {"measurement": "IC50", "setting": "[1]", "result": 104, "unit": "µM"},
      {"measurement": "sensitivity of α1H-1-containing calcium channels lower when expressed in HEK293 cells than when expressed in Xenopus oöcytes", "setting": "[1]", "result": "about 10 fold"},
      {"measurement": "IC50", "setting": "[2]; Xenopus oöcytes", "result": "8.3 µM and 10.3 µM"}
    ]}
  ]
}
